Reference: patent EP4549150A1, “RESIN COMPOSITION FOR THREE-DIMENSIONAL PRINTING” (Cubicure GmbH, priority 2023, dated 2025)
Marks after values point to notes of the source that are not given here.

Assays:
Assay type in all cases: physicochemical
[1] = Volatility: weight loss after 24 hours in oven; conditions: for weight loss relative to example 1: ratio to weight loss of example 1
Method: Volatility can be assessed from the weight lost after 24 hours, and is preferably below 10%, more preferably below 5% and even more preferable below 1% at the process temperature (between 30 and 150°C). For the determination of the volatility of the compounds 25 mL flasks (Ø 30 mm) with approximately 2 grams of the test compound were placed in a Memmert oven at 50 °C and 80°C for 24 hours and the volatility was determined as the weight loss in percent (w/w).

[2] = Viscosity by rheology (temperature ramp, cone-plate rheometer); conditions: shear rate 60 s^-1
Method: Viscosity is another crucial parameter on the development of a reactive diluent. To obtain an effective reactive diluent, monomers providing a low viscosity need to be obtained. The referred viscosity is preferably between 5 and 100 mPa.s, more preferably between 5 and 50 mPa.s, and even more preferably 5 and 20 mPa.s. The presented viscosities refer to the process temperature which can be between 30-150°C. The viscosity was determined via rheology. Rheology measurements were performed using an Anton Paar MCR 102 rheometer, equipped with a P-PTD 200/GL Peltier glass plate and an H-PTD200 heating hood. For measuring the rheological properties, a temperature ramp experiment was performed from 25-100°C with a heating rate of 0.5°C min^-1, using a CP25 measurement system (cone plate with a 2° angle and 25 mm diameter) at a gap distance of 0.1 mm and with a shear rate of 60 s^-1.

[3] = Photo-DSC photo-reactivity study; conditions: 50°C, 365 nm, 1% w/w TPO-L; for t95%: time when 95% of the total heat of polymerization has evolved; for tmax: time when maximum heat evolution was reached
Method: Photo-DSC (differential scanning calorimetry) studies were performed using a Netzsch DSC 204 F1 containing an autosampler and coupled to an intracooler IC85 cooling device. The system was connected to an Omnicure LX500 controller with a 365 nm LED and the power intensity was set on the sample at 17 mW cm^-2 (measured using a Thorlabs SMC100 powermeter and the corresponding S310C thermal power head). The test samples were mixed in a vortex mixer for 3 minutes with 1% w/w of TPO-L (a commercially available photoinitiator) and then […] were transferred to an aluminum crucible without lid. All experiments were conducted under Nitrogen atmosphere (flow = 20 mL/min) at 50°C and the samples were irradiated for 5 minutes. Triplicate DSC measurements were performed for each example. The measured heat of polymerization (ΔH) was calculated by integrating the area under the curve from 0 to 200 s.
Here, tmax is the time when maximum heat evolution was reached and t95% corresponds to the point when 95% of the total heat of polymerization has evolved (0 s corresponds to the moment when light is triggered). The double bound conversion (DBC) was calculated from the experimentally obtained heat of polymerization and the theoretical polymerization enthalpy indicated in the literature (56 kJ mol^-1 for methacrylates).

[4] = Dynamic Mechanical Analysis (DMA) of printed specimens; conditions: increasing the percentage of reactive diluent from 10 to 30% in X-851-1066
Method: For the (thermo)mechanical tests and water uptake tests, Example 1 or Reference 2 were mixed with two commercially available oligomers, namely Ebecryl 8811 (Allnex) a difunctional aliphatic urethane acrylate and BR-952 (Bomar) a difunctional aliphatic urethane methacrylate in different ratios.
For the sample preparation a speedmixer (DAC 150.1 FVZ-K, Hauschild) was used. 70 g of the total formulation was mixed at 3000 rpm for 10 minutes. After that the resin composition was degassed until no air bubbles were released.
Test specimens were printed on a Cubicure Caligma 200 DLP 405 nm. Light Pulse Duration was set to 6000, corresponding to 1.5 s total exposure time, and print speed to 20 mm/s. Processing temperature was 35°C, due to the high volatility of Reference 2.
Dynamic Mechanical Analysis (DMA) of the printed specimens measuring 50x5x1 mm^3 was performed using a DMA8000 Dynamic Mechanical Analyzer from PerkinElmer. The measurements were performed using the tension mode, from 30-160 °C with a heating rate of 2°C min^-1 and frequency of 1 Hz. In these experiments the evolution of the storage modulus G' with increasing temperature was observed and the Tg was determined (maximum value for tan δ).

Row | Compound | Volatility [weight loss %] ([1]; 50°C) [%] | Volatility [weight loss %] ([1]; 80°C) | Viscosity ([2]; 25°C (room temperature)) [mPa.s] | Viscosity ([2]; 40°C) [mPa.s] | Viscosity ([2]; 50°C) [mPa.s] | Viscosity ([2]; 70°C) [mPa.s] | Viscosity ([2]; 90°C) [mPa.s] | Viscosity ([2]; 100°C) [mPa.s] | t95% [3] [s] | tmax [3] [s] | Viscosity ([2]; 25°C (room temperature), listed as Example 5) [mPa.s] | Viscosity ([2]; 40°C, listed as example 5) [mPa.s] | Viscosity ([2]; 25°C (room temperature), listed as Example 4) [mPa.s] | decrease of Tg of the photopolymer [4] [%] | weight loss relative to example 1 ([1]; 80°C)
1 | C=C(C)C(=O)OC1CCCCC1OC(=O)C1CCCCC1 (stereo not drawn) [Ex2, 2-(cyclohexylcarbonyloxy)cyclohexyl methacrylate] | 1 | 14% | 27 | 17 | 12 | 7 | 4 | 4 | 66 | 17 | – | – | – | – | –
2 | C=C(C)C(=O)OC1CCCCC1OC(=O)C(CC)CCCC (stereo not drawn) [Ex5, 2-(isopropenylcarbonyloxy)cyclohexyl 2-ethylhexanoate] | 0.6 | 1.9** % | 174 | 101 | 65 | 34 | 20 | 19 | – | – | 110 | 53 | – | – | –
3 | C=C(C)C(=O)OC1CCCCC1OC(=O)Cc1ccccc1 (stereo not drawn) [Ex4, 2-(benzylcarbonyloxy)cyclohexyl methacrylate] | 0.09 | 17% | 110 | 53 | 31 | 13 | 8 | 7 | 174 | 26 | – | – | 174 | – | –
4 | C=C(C)C(=O)OCCO [Ref2, 2-hydroxyethylmethacrylate, reference compound] | 34 | 89% | 6 | 4 | 3 | 2 | 1 | 1 | 65 | 43 | – | – | – | 13 | more than 4 times
5 | C=C(C)C(=O)OC1CCCCC1OC(=O)C(C)(C)C (stereo not drawn) [Ex3, 2-(isopropenylcarbonyloxy)cyclohexyl 2,2-dimethylpropionate] | 2.7 | 21% | 13 | 9 | 6 | 4 | 2 | 2 | 87 | 51 | – | – | – | – | –
6 | C=C(C)C(=O)OC1CCCCC1O (stereo not drawn) [Ex1, 2-hydroxycyclohexyl methacrylate] | 5 | 20% | 53 | 26 | 16 | 7 | 4 | 3 | 43 | 14 | – | – | – | 4 | –
7 | Isobornyl methacrylate [Ref1, reference compound] | 12 | 65% | 8 | 6 | 4 | 3 | 2 | 2 | 67 | 36 | – | – | – | – | 3 times
